Laboratory results reported in US20170182106A1, “COMPOSITION INCLUDING KIRENOL OR SIEGESBECKIA HERBA EXTRACT FOR MUSCLE FUNCTION IMPROVEMENT OR EXERCISE ABILITY ENHANCEMENT” (University-Industry Foundation, Yonsei University, priority 2014, published 2017).

Columns and labels:
Type in all cases: cell-based
[1] = tested on: myogenin; test: myogenin mRNA expression in TNF-α-treated differentiated L6 cells (RT-PCR); details: TNF-α 24 hours, kirenol 10, 40 μM, FIG. 4
Description: (§1) L6 myoblasts (American Type Culture Collection, Manassas, Va., USA), which are muscle cells, were incubated in DMEM (10% FBS, 100 U/mL penicillin, 100 μg/mL streptomycin). When the cell density reached about 80-85%, the cell culture medium was replaced with a DMEM growth medium supplemented with 2% FBS. The experiment was initiated after 6 days of differentiation. To induce muscle reduction, the differentiated L6 cells were treated with TNF-α for 24 hours and then with the ethanol extract of Siegesbeckia orientalis L. (10, 40 ppm) prepared according to Example 3-1 and kirenol (10, 40 μM) prepared according to Example 4. RT-PCR was carried out to measure mRNA expression levels of myogenin and MyoD, which are muscle differentiation regulatory factors. TRIzol Reagent (Invitrogen, Carlsbad, Calif., USA) was used for harvesting total RNA from the differentiated cells, and the total RNA was reverse transcribed. The RT-PCR analysis was carried out as follows: First, the RNA was reverse transcribed for cDNA synthesis by using a reverse transcriptase. RT-PCR was conducted using specific primers as listed below, and β-actin was used to indicate that a constant amount of mRNA was loaded into each lane.

[2] = tested on: p-mTOR; test: p-mTOR protein expression in L6 muscle cells (western blotting); details: 10 μM kirenol, 24 hours, vs 0.01% DMSO control, FIG. 1
Description: (§2) L6 myoblasts (American Type Culture Collection, Manassas, Va., USA), which are muscle cells, were incubated in Dulbecco's Modified Eagle's Medium (DMEM; Hyclone) containing 10% fetal bovine serum (FBS; Hyclone, Logan, Utah, USA), 100 U/mL penicillin, and 100 μg/mL streptomycin (Gibco, Grand Island, N.Y., USA). The L6 cells were treated with the Siegesbeckia glabrescens Mak. ethanol extract prepared according to the above Example 1-1, the Siegesbeckia pubescens Mak. ethanol extract prepared according to Example 2-1, or the Siegesbeckia orientalis L. ethanol extract prepared according to Example 3-1, each at a concentration of 10 ppm. Also, L6 cells were treated with 10 μM kirenol prepared according to Example 4. In this case, a group treated with 0.01% DMSO instead of being treated with a sample was prepared as a control group. […]
ECL western blotting detection reagents (Amersham, Tokyo, Japan) were used to color p-mTOR protein bands, and the G:BOX EF imaging system (Syngene, Cambridge, UK) was used to measure the densities of the colored protein bands. In this case, relative densities of protein bands of experimental groups treated with a sample were determined as a percentage (%), with the density of the control protein band being 100%. […]

[3] = tested on: MuRF1; test: MuRF1 mRNA expression in differentiated L6 cells (RT-PCR); details: kirenol 10, 40 μM, FIG. 6
[4] = tested on: PGC-1α; test: PGC-1α protein expression in L6 muscle cells (western blotting); details: 10 μM kirenol, 24 hours, vs 0.01% DMSO control, FIG. 11
Description: as §2, with “(myoblast; American” for “(American”, “DMEM (Hyclone)” for “Dulbecco's Modified Eagle's Medium (DMEM; Hyclone)”, “to” for “to the above”, “1-1,” for “1-1, the”, “or” for “or the”, “group. 24 hours later, the L6 cells were dissolved in a RIPA (ELPIS-Biotech, Daejeon, Korea) buffer solution containing a proteinase inhibitor cocktail (Sigma-Aldrich, St. Louis, Mo., USA).” for “group.”
ECL western blotting detection reagents (Amersham, Tokyo, Japan) were used to color PGC-1α protein bands, and the G:BOX EF imaging system (Syngene, Cambridge, UK) was used to measure the densities of the colored protein bands. In this case, relative densities of protein bands of experimental groups treated with a sample were determined as a percentage (%), with the density of the control protein band being 100%. […]

[5] = tested on: atrogin-1; test: atrogin-1 mRNA expression in differentiated L6 cells (RT-PCR); details: kirenol 10, 40 μM, FIG. 6
[6] = tested on: MyoD; test: MyoD mRNA expression in TNF-α-treated differentiated L6 cells (RT-PCR); details: TNF-α 24 hours, kirenol 10, 40 μM, FIG. 4
Description: as §1

## C[C@@]1(CO)C[C@@H](O)C[C@@]2(C)C3CC[C@](C)([C@@H](O)CO)C=C3CC[C@H]12 (stereo in doubt) [kirenol, (1R,3S,4aS,4bS,7S,10aS)-1,2,3,4,4a,4b,5,6,7,9,10,10a-Dodecahydro-3-hydroxy-7-[(R)-1,2-dihydroxyethyl]-1,4a,7-trimethylphenanthrene-1-methanol]
[1]
  mRNA expression level of myogenin: increases
[2]
  protein expression level of p-mTOR: increased
[3]
  mRNA expression level of MuRF1: reduces
[4]
  protein expression level of PGC-1α: increased
[5]
  mRNA expression level of atrogin-1: reduces
[6]
  mRNA expression level of MyoD: increases
